US8613914B2, “Peptidomimetic sulfamide compounds and antiviral uses thereof” (Novartis AG, priority 2009, dated 2013)

The compounds below were run against HCV NS3-4A serine protease (full-length NS3-4A protein) (Hepatitis C virus genotype 1a (isolate 1) (HCV), UniProt P26664) (assay: HCV NS3-4A protease assay). Conditions: strain HCV-1, fluorogenic peptide substrate, read-out: Protease assay Ex. 12 IC50.
Format: biochemical, HCV genotype 1a
Experimental: The inhibitory activity of certain compounds of Table A against HCV NS3-4A serine protease is determined in a homogenous assay using the full-length NS3-4A protein (genotype 1a, strain HCV-1) and a commercially available internally-quenched fluorogenic peptide substrate as described by Taliani, M., et al. 1996 Anal. Biochem. 240:60-67, which is incorporated by reference in its entirety.

Chain of HCV NS3-4A serine protease (full-length NS3-4A protein) (P26664 1027-1657): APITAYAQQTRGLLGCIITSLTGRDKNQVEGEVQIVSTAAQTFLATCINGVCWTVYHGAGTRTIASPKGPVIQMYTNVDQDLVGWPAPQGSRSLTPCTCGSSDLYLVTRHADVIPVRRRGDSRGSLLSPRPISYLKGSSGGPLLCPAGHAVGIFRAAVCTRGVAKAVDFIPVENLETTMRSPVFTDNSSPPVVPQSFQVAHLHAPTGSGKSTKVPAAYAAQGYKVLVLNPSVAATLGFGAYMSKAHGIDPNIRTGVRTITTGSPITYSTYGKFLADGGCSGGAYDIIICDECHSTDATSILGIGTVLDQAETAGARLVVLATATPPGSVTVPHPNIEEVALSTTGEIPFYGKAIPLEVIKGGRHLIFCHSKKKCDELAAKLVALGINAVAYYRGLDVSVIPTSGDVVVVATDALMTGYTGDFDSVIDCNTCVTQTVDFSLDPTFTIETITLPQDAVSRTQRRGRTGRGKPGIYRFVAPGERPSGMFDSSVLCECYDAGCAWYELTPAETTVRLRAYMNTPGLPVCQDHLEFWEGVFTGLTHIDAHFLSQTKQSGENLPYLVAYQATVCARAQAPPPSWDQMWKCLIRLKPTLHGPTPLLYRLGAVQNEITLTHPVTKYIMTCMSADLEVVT
Chain of HCV NS3-4A serine protease (full-length NS3-4A protein) (P26664 1658-1711 partner): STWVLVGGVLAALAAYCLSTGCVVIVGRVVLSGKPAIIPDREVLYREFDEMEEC

Structure (SMILES) | IC50 [nM]
C=C[C@@H]1C[C@]1(NC(=O)[C@@H]1C[C@@]2(CN1C(=O)[C@@H](NC(=O)[C@@H](NC(=O)C(C)(C)N1CCCCC1)C1CCCCC1)C(C)(C)C)C(C)(C)C21CCC1)C(=O)NS(=O)(=O)N1CCCC1 [Compound 25, (5R,8S)-7-[(2S)-2-({(2S)-2-cyclohexyl-2-[(2-methyl-2-piperidin-1-ylpropanoyl)amino]acetyl}amino)-3,3-dimethylbutanoyl]-10,10-dimethyl-N-{(1R,2S)-1-[(pyrrolidin-1-ylsulfonyl)carbamoyl]-2-vinylcyclopropyl}-7-azadispiro[3.0.4.1]decane-8-carboxamide] | 8
C=C[C@@H]1C[C@]1(NC(=O)[C@@H]1C[C@@]2(CN1C(=O)[C@@H](NC(=O)[C@@H](NC(=O)[C@@H]1CCC(F)(F)CN1C(C)C)C1CCCCC1)C(C)(C)C)C(C)(C)C21CCC1)C(=O)NS(=O)(=O)N1CCCC1 [Compound 105, (5R,8S)-7-[(2S)-2-{[(2S)-2-cyclohexyl-2-({[(2S)-5,5-difluoro-1-isopropylpiperidin-2-yl]carbonyl}amino)acetyl]amino}-3,3-dimethylbutanoyl]-10,10-dimethyl-N-{(1R,2S)-1-[(pyrrolidin-1-ylsulfonyl)carbamoyl]-2-vinylcyclopropyl}-7-azadispiro[3.0.4.1]decane-8-carboxamide] | 45
C=C[C@@H]1C[C@]1(NC(=O)[C@@H]1C[C@@]2(CN1C(=O)[C@@H](NC(=O)[C@@H](NC(=O)c1cc3cc(OC)ccc3[nH]1)C1CCCCC1)C(C)(C)C)C(C)(C)C21CCC1)C(=O)NS(=O)(=O)N1CCCC1 [Compound 176, (5R,8S)-7-{(2S)-2-[(cyclohexyl{[(5-methoxy-1H-indol-2-yl)carbonyl]amino}acetyl)amino]-3,3-dimethylbutanoyl}-10,10-dimethyl-N-{(1R,2S)-1-[(pyrrolidin-1-ylsulfonyl)carbamoyl]-2-vinylcyclopropyl}-7-azadispiro[3.0.4.1]decane-8-carboxamide] | 25
C=C[C@@H]1C[C@]1(NC(=O)[C@@H]1C[C@@]2(CN1C(=O)[C@@H](NC(=O)[C@@H](NC(=O)[C@@H]1CCCCN1C(C)C)C1CCCCC1)C(C)(C)C)C(C)(C)C21CCC1)C(=O)NS(=O)(=O)NC1CCC1 [Compound 57, (5R,8S)-N-[(1R,2S)-1-{[(cyclobutylamino)sulfonyl]carbamoyl}-2-vinylcyclopropyl]-7-[(2S)-2-{[(2S)-2-cyclohexyl-2-({[(2S)-1-isopropylpiperidin-2-yl]carbonyl}amino)acetyl]amino}-3,3-dimethylbutanoyl]-10,10-dimethyl-7-azadispiro[3.0.4.1]decane-8-carboxamide] | 6.5
C=C[C@@H]1C[C@]1(NC(=O)[C@@H]1C[C@@]2(CN1C(=O)[C@@H](NC(=O)[C@@H](NC(=O)[C@@H]1Cc3[nH]cnc3CN1)C(C)(C)C)C(C)(C)C)C(C)(C)C21CCC1)C(=O)NS(=O)(=O)N1CCCC1 [Compound 29, (5R,8S)-7-[(2S)-2-{[(2S)-3,3-dimethyl-2-{[(6S)-4,5,6,7-tetrahydro-1H-imidazo[4,5-c]pyridin-6-ylcarbonyl]amino}butanoyl]amino}-3,3-dimethylbutanoyl]-10,10-dimethyl-N-{(1R,2S)-1-[(pyrrolidin-1-ylsulfonyl)carbamoyl]-2-vinylcyclopropyl}-7-azadispiro[3.0.4.1]decane-8-carboxamide] | 40
C=C[C@@H]1C[C@]1(NC(=O)C1C[C@@]2(CN1C(=O)[C@@H](NC(=O)c1cccc(C(=O)NC)c1)C(C)(C)C)C(C)(C)C21CCC1)C(=O)NS(=O)(=O)N1CCCC1 (stereo partly drawn) [Compound 88, N-[(1S)-1-{[(5R)-10,10-dimethyl-8-({(1R,2S)-1-[(pyrrolidin-1-ylsulfonyl)carbamoyl]-2-vinylcyclopropyl}carbamoyl)-7-azadispiro[3.0.4.1]dec-7-yl]carbonyl}-2,2-dimethylpropyl]-N′-methylisophthalamide] | 500
